In brackets after ≈: the same amount, converted by molar mass. Entries after “also recorded” stand apart in the source; their conditions may differ. Read-outs that look alike come from different tables or passages of the source.
What was measured:
COX-1 = biological target: T1, COX-1 (Ovis aries, UniProt P05979); experiment: Colorimetric COX inhibitor screening assay, COX-1; assay type: biochemical, ovine; settings: data not shown
T1 construct: purchased Cayman Chemical Company
T1 sequence (P05979 25-600): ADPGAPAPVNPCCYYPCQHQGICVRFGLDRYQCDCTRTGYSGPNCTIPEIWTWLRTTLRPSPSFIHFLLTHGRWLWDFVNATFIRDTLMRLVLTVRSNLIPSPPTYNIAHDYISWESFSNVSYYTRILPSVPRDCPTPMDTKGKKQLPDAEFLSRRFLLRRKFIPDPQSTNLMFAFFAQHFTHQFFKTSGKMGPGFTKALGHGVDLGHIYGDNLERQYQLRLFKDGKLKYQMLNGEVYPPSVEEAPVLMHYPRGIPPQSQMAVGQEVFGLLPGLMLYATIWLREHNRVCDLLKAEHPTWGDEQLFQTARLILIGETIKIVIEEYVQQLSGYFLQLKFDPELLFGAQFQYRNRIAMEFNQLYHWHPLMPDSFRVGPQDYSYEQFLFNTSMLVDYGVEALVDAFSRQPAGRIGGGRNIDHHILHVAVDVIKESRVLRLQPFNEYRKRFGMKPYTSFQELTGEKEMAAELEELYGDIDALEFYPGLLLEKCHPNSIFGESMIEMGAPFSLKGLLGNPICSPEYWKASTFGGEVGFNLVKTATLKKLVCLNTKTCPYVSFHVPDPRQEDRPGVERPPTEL
Procedure: An ovine COX inhibitor screening assay (Cayman Chemical Company, Ann Arbor, Mich.) was used to measure inhibition of purified COX-1 and COX-2. This assay measures the peroxidase component of cyclooxygenases colorimetrically by monitoring the appearance of oxidized N,N,N′,N′-tetramethyl-p-phenylenediamine (TMPD) at 590 nm. Tablets of Vioxx (rofecoxib; Merck & Co., Inc., Whitehouse Station, N.J.) were ground and dissolved in methanol (1 mg/mL) to use as a positive control. AL-1, leukomisin, and austricin were also dissolved in methanol at 1 mg/mL. The assay was performed following manufacturer instructions. Vioxx, vehicle (100% initial activity), or treatments were added to a 96-well plate along with 180 μL assay mixture provided by the manufacturer containing 150 μL assay buffer, 10 μL heme, and 10 μL enzyme (COX-1 or COX-2). A background correction row received no enzyme and 10 μL additional assay buffer. After 5 min incubation at room temp, 20 μL of a colorimetric substrate solution containing TMPD and 20 μL arachadonic acid diluted in assay buffer were added to the plate. The plate was incubated for 5 min and the absorbance was read at 590 nm using a microplate reader (Molecular Devices, Sunnyvale, Calif.). To calculate percent inhibition, average absorbance was calculated for each sample (n=3). The background blank well absorbance was subtracted from each sample. […]

COX-2 = biological target: T2, COX-2 (Ovis aries, UniProt P79208); experiment: Colorimetric COX inhibitor screening assay, COX-2; assay type: biochemical, ovine
T2 construct: purchased Cayman Chemical Company
T2 sequence (P79208 17-603): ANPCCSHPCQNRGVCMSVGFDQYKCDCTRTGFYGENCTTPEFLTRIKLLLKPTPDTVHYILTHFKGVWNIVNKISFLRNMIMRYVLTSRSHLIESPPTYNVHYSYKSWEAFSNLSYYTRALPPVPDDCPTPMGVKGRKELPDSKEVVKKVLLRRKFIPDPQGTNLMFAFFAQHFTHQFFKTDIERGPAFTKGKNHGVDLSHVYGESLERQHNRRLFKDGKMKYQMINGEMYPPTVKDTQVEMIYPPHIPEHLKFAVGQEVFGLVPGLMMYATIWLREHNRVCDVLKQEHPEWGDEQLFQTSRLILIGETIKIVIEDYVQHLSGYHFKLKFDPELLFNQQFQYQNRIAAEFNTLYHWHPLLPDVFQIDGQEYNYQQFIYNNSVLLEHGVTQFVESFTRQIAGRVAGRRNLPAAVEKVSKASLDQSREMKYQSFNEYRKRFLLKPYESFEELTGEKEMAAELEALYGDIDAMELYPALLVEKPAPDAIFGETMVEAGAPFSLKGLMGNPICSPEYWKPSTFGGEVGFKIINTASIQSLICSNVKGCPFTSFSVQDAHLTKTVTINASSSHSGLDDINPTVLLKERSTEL
Procedure: An ovine COX inhibitor screening assay (Cayman Chemical Company, Ann Arbor, Mich.) was used to measure inhibition of purified COX-1 and COX-2. This assay measures the peroxidase component of cyclooxygenases colorimetrically by monitoring the appearance of oxidized N,N,N′,N′-tetramethyl-p-phenylenediamine (TMPD) at 590 nm. Tablets of Vioxx (rofecoxib; Merck & Co., Inc., Whitehouse Station, N.J.) were ground and dissolved in methanol (1 mg/mL) to use as a positive control. AL-1, leukomisin, and austricin were also dissolved in methanol at 1 mg/mL. The assay was performed following manufacturer instructions. Vioxx, vehicle (100% initial activity), or treatments were added to a 96-well plate along with 180 μL assay mixture provided by the manufacturer containing 150 μL assay buffer, 10 μL heme, and 10 μL enzyme (COX-1 or COX-2). A background correction row received no enzyme and 10 μL additional assay buffer. After 5 min incubation at room temp, 20 μL of a colorimetric substrate solution containing TMPD and 20 μL arachadonic acid diluted in assay buffer were added to the plate. The plate was incubated for 5 min and the absorbance was read at 590 nm using a microplate reader (Molecular Devices, Sunnyvale, Calif.). To calculate percent inhibition, average absorbance was calculated for each sample (n=3). The background blank well absorbance was subtracted from each sample.
[(100% Initial activity-Blank)−(Treatment-Blank)/(100% Initial activity-Blank)]*100

[1] = read-out: percent inhibition of COX-2 enzyme activity, mean ± SE

For CC1=CC(=O)C2=C(C)CC[C@@H]3[C@H](OC(=O)[C@H]3C)[C@@H]12 [leukomisin], the “COX-1 enzyme inhibition (in words)” value (COX-1) was “did not inhibit COX-1 activity; also recorded: did not significantly inhibit”, the “percent inhibition of COX-2 enzyme activity, mean ± SE” value (from here on “percent inhibition … mean ± SE”) (COX-2; 45 μg/ml) was 34 ± 1% and the “percent inhibition … mean ± SE” value (COX-2; 115 μg/ml) was 51 ± 3%. The “percent inhibition … mean ± SE” value (COX-2; 225 μg/ml) was 65 ± 5%, the “IC50, COX-2 inhibition” value (COX-2; purified ovine COX-2) was 129 µg/mL (≈ 524 µM) and the IC50 (COX-2; purified ovine COX-2, read-out: IC50, COX-2 inhibition) was 524 µM.

For CC1=CC(=O)C2=C(C)C[C@H](O)[C@@H]3[C@H](OC(=O)[C@H]3C)[C@@H]12 (single isomer, unassigned) [austricin], the “COX-1 enzyme inhibition (in words)” value (COX-1) was “did not inhibit COX-1; also recorded: did not significantly inhibit”, the IC50 (COX-2; IC50, COX-2 inhibition, purified ovine COX-2) was 1970 µM and the IC50 (COX-2; IC50, COX-2 inhibition, purified ovine COX-2, molar value in brackets) was 2000 µM. The inhibition at 45 µg/mL (COX-2; [1]) was 19 ± 1%, the inhibition at 115 µg/mL (COX-2; [1]) was 29 ± 2% and the inhibition at 225 µg/mL (COX-2; [1]) was 31 ± 1%.

Reference: patent US20080145465A1, “Sesquiterpene lactone extract from artemisia leucodes for reducing inflammation and down-regulating pro-inflammatory gene expression” (priority 2006, published 2008)
